Read-outs that look alike come from different tables or passages of the source. Positions of bridges follow the written chain, without caps; N, C: chain ends. Residues, ends and D or L forms follow the SMILES beside them.

For data set [1] the following is noted: amide bond, 42-membered ring, MESNa (NCL via N-S acyl transfer), then NH4HCO3 oxidation, 0.1 M Na phosphate pH 5.8, 55.0 °C, 2 steps.
For data set [2], the target named is T1, KLK5 (Homo sapiens, UniProt Q9Y337).
T1 construct: purchased Novoprotein
T1 sequence (Q9Y337 23-293): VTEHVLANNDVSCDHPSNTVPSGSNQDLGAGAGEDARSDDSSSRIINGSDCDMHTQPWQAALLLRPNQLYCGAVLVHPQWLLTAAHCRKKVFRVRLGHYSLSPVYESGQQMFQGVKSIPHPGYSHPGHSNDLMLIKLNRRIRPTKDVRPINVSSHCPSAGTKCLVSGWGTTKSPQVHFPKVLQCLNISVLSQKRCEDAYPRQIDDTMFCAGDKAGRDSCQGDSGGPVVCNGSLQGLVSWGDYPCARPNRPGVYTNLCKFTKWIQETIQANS
As to the kind of experiment: KLK5 inhibition, fluorogenic Boc-VPR-AMC assay (S1 Table conditions). The class given is biochemical. As to conditions: read-out: BOC-VPR-AMC IC50 (N = 3); KLK5 10 nM, Boc-VPR-AMC 41.6 μM, 1xPBS pH 8.0, 15 min on ice preincubation, read at 15 min, 25°C. As to the method: All assays were performed on 96-well microplates and the change in relative fluorescence unit (RFU) was measured by fluorescence spectrometer (BMG FLUOstar OPTIMA). […] Stock solution of Boc-VPR-AMC was prepared by dissolving the solid in dimethyl sulfoxide to 100 mM and 10 mM for MeOSuc-AAPV. For BODIPY_FL casein, it was reconstituted to 1 mg/mL in 1xPBS. […] The % of inhibition was calculated by the following equation: % of Inhibition=(1−(Sample RFU − Min RFU)/(Max RFU − Min RFU)) X100
(§1) Each inhibition curves were done in triplicates with a minimum of five concentration points fitted. Fitting of each curve was done using SigmaPlot with the Four Parameter Logistic Function and the IC50 calculated. […] All tested compounds were reconstituted to stock solution in water.
The diluent for all the tested compounds, protein and substrate was 1xPBS pH 8.0. Zinc sulfate and p-aminobenzamidine were purchased from Sigma (Dorset, U.K.). […] The ligand-protein mixtures were incubated on ice for 15 minutes and 20 μL was transferred to a well of a 96-well microplate (ThermoScientific, Waltham, U.S.) in triplicate. […] Change in RFU was measured 15 minutes after substrate addition at 25°C.

The target in data set [3] is T1, KLK5. As to the kind of experiment: biochemical. As to the method: (§2) All assays were performed on 96-well microplates and the change in relative fluorescence unit (RFU) was measured by fluorescence spectrometer (BMG FLUOstar OPTIMA). The excitation/emission wavelength was 360/460 nm for the substrate Boc-VPR-AMC (Bachem AG, Hauptstrasse, Switzerland) and MeOSuc-AAPV-AMC (Bachem AG, Hauptstrasse, Switzerland) and 485/520 nm for BODIPY_FL casein (Invitrogen, Carlsbad, US). Stock solution of Boc-VPR-AMC was prepared by dissolving the solid in dimethyl sulfoxide to 100 mM and 10 mM for MeOSuc-AAPV. For BODIPY_FL casein, it was reconstituted to 1 mg/mL in 1xPBS. […] The % of inhibition was calculated by the following equation: % of Inhibition=(1−(Sample RFU − Min RFU)/(Max RFU − Min RFU)) X100
as §1
The diluent for all the tested compounds, protein and substrate was 1xPBS. Serially diluted ligands were mixed with diluted recombinant KLK5 (10 nM f/c). The ligand-protein mixtures were incubated on ice for one hour and 19.5 μL was pipetted into a well of a 96-well microplate in triplicates. To start the reaction, 100 μL of the diluted (41.6 μM f/c) Boc-VPR-AMC substrate solution (contained 0.05% v/v Brij35) was added. The plate was incubated at 37°C and the RFU reading was taken 15 minutes after.
There are two previously reported Km values for KLK5 and its substrate Boc-VPR-AMC which allowed the IC50 to Ki conversion. Ki values were calculated according to the Cheng-Prusoff equation Ki= IC50/1+[S]/Km for single site competitive binding.

In data set [4] the target is T1, KLK5. As to the kind of experiment: biochemical. The class given is binding. How it is done: ITC experiments were performed on a MicroCal iTC200 calorimeter (GE Healthcare, Uppsala, Sweden) at 298.15 K with a stirring speed of 750 revolutions per minute. Concentrated (450 μM) ligand solutions were injected into protein (KLK5) solution (20 μM, 280 μL sample volume) in the sample cell. Injection volumes were 2 μL for I10H and Analogue 1 and 1 μL for Analogue 2 and 6 with a spacing of 120 seconds between each injection. Concentrations of ligands were determined by dried weight and they were reconstituted to 10 mM stock in H2O. Concentration of KLK5 was determined by UV280 calculated with an extinction coefficient of 38680 and molecular weight of 32KDa (including weight of glycosylation). The protein solution were buffer exchanged using spin column to 1xPBS (137 mM NaCl, 2.7 mM KCl, 4.3 mM Na2HPO4, 1.47 mM KH2PO4 pH 8.0) or 20 mM MES buffer (with 150 mM NaCl, pH 5.5). Ligand stocks were diluted in those buffers (4.5 μL + 95.5 μL buffer), and then equal v/v % of H2O was added to the protein solution after buffer exchange to ensure matching buffer contents. Heat of dilution was undetectable in control experiments. Data were analyzed using OriginLab version 7.0.

The target of data set [5] is T2, KLK7 (Homo sapiens, UniProt P49862).
T2 construct: purchased R&D
T2 sequence (P49862 30-253): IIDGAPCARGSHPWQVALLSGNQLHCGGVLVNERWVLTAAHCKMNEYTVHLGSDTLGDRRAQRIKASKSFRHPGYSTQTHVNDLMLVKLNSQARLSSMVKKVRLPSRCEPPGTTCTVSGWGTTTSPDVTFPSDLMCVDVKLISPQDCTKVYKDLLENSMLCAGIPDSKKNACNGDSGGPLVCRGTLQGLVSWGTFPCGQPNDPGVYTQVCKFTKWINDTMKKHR
As to the kind of experiment: biochemical. As to the method: as §2, §1
Recombinant KLK7, KLK8 and KLK14 (>95% purity by SDS-PAGE, endotoxin <0.1 ng/μg, R&D, Minneapolis, U.S.) stocks were diluted with 1xPBS to a concentration of 120 nM. KLK7 and KLK14 were activated by addition of 1 mM f/c CaCl2 (Sigma, Dorset, U.K.), 0.05% v/v Brij35 (Sigma, Dorset, U.K.), 20 nM f/c thermolysin (Sigma, Dorset, U.K.) and incubated at 37°C for 1 hour. The reaction was stopped by addition of ethylenediaminetetraacetic acid (EDTA, 50 mM f/c). KLK8 was activated by addition of 11 nM f/c lysyl endopeptidase (Santa Cruz Biotechnology, Dallas, U.S.) and incubation at 37°C for 0.5 hour. […] The RFU value reached by the thermolysin control was used as the minimum RFU for calculating the % of inhibition for KLK7.
The diluent for all the tested compounds, protein and substrate (except KLK7, which was done with 10 mM Tris pH 7.8) was 1xPBS pH 8.0–8.9. The serially diluted ligands were mixed with diluted bovine trypsin (Sigma, Dorset, U.K.) or activated KLK14, or KLK5, or activated KLK8 or matriptase (catalytic domain only, >90% purity by SDS-PAGE, endotoxin <0.1 ng/μg, R&D, Minneapolis, U.S.) or activated KLK7 or human neutrophil elastase (purified from human plasma, >95% purity by SDS-PAGE, Abcam, Cambridge, U.K.) or porcine pancreatic elastase 1 (Sigma, Dorset, U.K.) or human plasma kallikrein or human plasma plasmin (purified from human plasma, ≥95% purity by SDS-PAGE, BioVision, Milpitas, U.S.). 20μL of the ligand-protein mixture was pipetted to a well of a 96-well microplate in triplicates. The reaction was started by addition of 90–100 μL of the diluted substrate solution (contained 0.05% v/v Brij35) and the plate incubated at 25°C but 37°C for KLK7. RFU reading for each well was taken 6 minutes (trypsin) or 15 minutes (KLK14, KLK5, KLK8, matriptase, human neutrophil elastase, porcine pancreatic elastase 1, plasma kallikrein and plasmin) or 20 hours (KLK7) after substrate addition.

In data set [1] (0.6 mM), GRCTKSKPPHCFPD yielded a ring closure, yield after HPLC of 16%.

With GRCTKSIPPHCYPD, the ring closure, yield after HPLC in data set [1] (0.6 mM) amounted to 19%.

The molecule GRCTRSIPPHCFPD yielded a ring closure, yield after HPLC in data set [1] (0.59 mM) of 24%.

In data set [1] (0.6 mM), GRCTKSIPPHCFPD returned a ring closure, yield after HPLC of 19%.

Consider NRCTKSIPPHCFPD, for which the ring closure, yield after HPLC in data set [1] (0.58 mM) is 25%.

Molecule GRCTRSIPPHCWPD came in with a ring closure, yield after HPLC in data set [1] (0.58 mM) of 24%.

What is called IC50 is the point on the concentration scale where inhibition reaches its midpoint. `O=S(=O)([O-])[O-].[Zn+2]` [Zinc Sulfate]: in data set [2], the IC50 came to 2.94 µM.

Consider `N=C(N)c1ccc(N)cc1` [p-Aminobenzamidine], for which, in data set [2], the IC50 is 60.5 µM.

As to GRCTKSIPPHCWPD, the ring closure, yield after HPLC in data set [1] (0.59 mM) amounted to 25%.

The Ki is a dissociation constant, usually derived from enzyme kinetics or from competition with a known ligand. The term Kd denotes the equilibrium constant for the complex coming apart. A high value points to weaker binding. `CC[C@H](C)[C@@H]1NC(=O)[C@H](CO)NC(=O)[C@H](CCCNC(=N)N)NC(=O)[C@H]([C@@H](C)O)NC(=O)[C@@H]2CSSC[C@H](NC(=O)[C@H](Cc3c[nH]cn3)NC(=O)[C@@H]3CCCN3C(=O)[C@@H]3CCCN3C1=O)C(=O)N[C@@H](Cc1ccccc1)C(=O)N1CCC[C@H]1C(=O)N[C@@H](CC(=O)O)C(=O)NCC(=O)N[C@@H](CCCNC(=N)N)C(=O)N2` [Analogue 1] (cyclo(CFPDGRCTRSIPPH); disulfide 1-7): in data set [3], the IC50 worked out at 65 ± 10 nM and affinity was put at a Ki of 60 nM. Moreover, binding in data set [4] was put at a Kd of 115 nM. For the same molecule, in data set [4] (ITC, 1xPBS pH 8.0, 25°C), the “Stoichiometry (N)” value turned out to be 1.03±0.01, the ΔH was determined as 1216 ± 21 cal/mol and the ΔS is 35.8 cal mol^-1 kelvin^-1. Also, in data set [4] (ITC, 25°C), the ΔG was -39.57 kJ/mol. The molecule also returned a Ka in data set [4] (ITC, 25°C (Table S2, unit not given)) of 8.7E6±2.7E6. For the same molecule, inhibition in data set [5] was half-maximal at 2290 ± 68 nM (IC50).

(Values after paper PMC5100903, “Tissue Kallikrein Inhibitors Based on the Sunflower Trypsin Inhibitor Scaffold – A Potential Therapeutic Intervention for Skin Diseases” (PLoS ONE, 2016).)
